Source: US4372877A, “Di(acylperoxy)-1,4-cyclohexane dimethanol-bis-carbonates” (priority 1981, dated 1983)

Legend:
[1] = disclosed in prior art U.S. patents; cited from earlier work
[2] = Ten-hour half-life temperature (0.1 M in benzene); assay type: physicochemical
From the text: Table I provides the ten-hour half-life of the compounds of the instant invention synthesized in Examples 1-3.
Peroxide (0.1 M in benzene)

[3] = Storage stability at 40 °C; assay type: physicochemical; design: A.O.: unit not given here
Method: APCD from Example 1 is selected as representative and was tested over a period of 89 days at 40° C. Representative peroxy carbonate and dicarbonates of the prior art are also included for comparison.
Storage Stability at 40° C.

[4] = Hot Block Gel Tests With Polyester Resin; conditions: block 180 °F, 1% wt peroxide (100% purity basis)
From the text: As mentioned above, the new molecules can be used for curing of polyester resins and this utility is illustrated in Tables V and VI below. Typical prior art peroxy dicarbonates and carbonates of the prior art are included for comparison.
Hot Block Gel Tests With Polyester Resin
Resin: MR 941 (U.S.S. Chemical - orthophthalic)
Concentrations of peroxide adjusted to 100% purity basis, 1% wt

[5] = Vinyl chloride suspension polymerization (% conversion)
Method: As mentioned, the instant bis-carbonates are useful for the initiation of monomers having polymerizable ethylenic or vinyl unsaturation, such as ethylene, styrene, methyl methacrylate and vinyl chloride and copolymers thereof. The data was generated with suspension polymerization performed in 12 ounce pop bottles using uninhibited monomer. Duplicate bottles were analyzed at each time interval for which data is listed. Bottles were frozen before venting off of excess monomer. Mixing speed of the pop bottles was 42 rpm. The water to vinyl chloride monomer ratio was 2.50. Each pop bottle contained 0.35 gms Dow Methocel 90 HG, 100 cps suspension agent per 100 gms vinyl chloride monomer.

[6] = 55 °C, 5.5 Hrs., 2.01 × 10^-4 moles/100g VCM (APCD 0.070, LPCD 0.126, BPCD 0.095 % wt)
[7] = 55 °C, 5.5 Hrs., 2.30 × 10^-4 moles/100g VCM (APCD 0.080, LPCD 0.145, BPCD 0.109 % wt)
[8] = 60 °C, 5.0 Hrs., 1.15 × 10^-4 moles/100g VCM (APCD 0.040, LPCD 0.072, BPCD 0.054 % wt)
[9] = 60 °C, 5.0 Hrs., 1.45 × 10^-4 moles/100g VCM (APCD 0.051, LPCD 0.091 % wt)

For O=C(OOC(=O)OC1CCCCCCCCCCC1)OC1CCCCCCCCCCC1 [dicyclododecyl peroxy dicarbonate], the “stability at room/ambient temperature” value [1] is given as “stability that permits storage at room temperature”.
With CC(C)(C)C1CCC(OC(=O)OOC(=O)OC2CCC(C(C)(C)C)CC2)CC1 (stereo not drawn) [Di(4-t-butylcyclohexyl) peroxydicarbonate] the “Ten-Hour Half-Life Temperature” value [2] was 43.0 °C, the “% Purity” value ([3]; 0 days elapsed) was 97.8% and the A.O. ([3]; 0 days elapsed) was 3.92. For the same compound, the “% Purity” value ([3]; 7 days elapsed) was 96.4%, the A.O. ([3]; 7 days elapsed) was 3.86 and the “% Purity” value ([3]; 14 days elapsed) was 96.4%. For the same compound, the A.O. ([3]; 14 days elapsed) was 3.86, the “% Purity” value ([3]; 28 days elapsed) was 95.2% and the A.O. ([3]; 28 days elapsed) was 3.82. For the same compound, the “% Purity” value ([3]; 59 days elapsed) was 93.0%, the A.O. ([3]; 59 days elapsed) was 3.73 and the “% Purity” value ([3]; 89 days elapsed) was 93.2%. For the same compound, the A.O. ([3]; 89 days elapsed) was 3.74, the “Exotherm Time” value ([4]; Table V) was 3.39 min and the “Gel Time” value ([4]; Table V) was 2.46 min. For the same compound, the “Exotherm Time” value ([4]; Table VI) was 3.58 min and the “Gel Time” value ([4]; Table VI) was 2.74 min.
In the case of CCCCCCCCCCCCCCCCCCOC(=O)OOC(C)=O [acetyl peroxystearyl carbonate], the “% Purity” value ([3]; 0 days elapsed) is reported as 94.1%, the A.O. ([3]; 0 days elapsed) is reported as 4.04 and the “% Purity” value ([3]; 7 days elapsed) is reported as 93.5%. The A.O. ([3]; 7 days elapsed) was 4.01, the “% Purity” value ([3]; 14 days elapsed) was 93.1% and the A.O. ([3]; 14 days elapsed) was 4.00. The “% Purity” value ([3]; 28 days elapsed) was 91.5%, the A.O. ([3]; 28 days elapsed) was 3.92 and the “% Purity” value ([3]; 59 days elapsed) was 87.9%. The A.O. ([3]; 59 days elapsed) was 3.77, the “% Purity” value ([3]; 89 days elapsed) was 78.8% and the A.O. ([3]; 89 days elapsed) was 3.38. The “Exotherm Time” value ([4]; Table V) was 4.05 min and the “Gel Time” value ([4]; Table V) was 3.13 min.
For CCCCCCCCCCCC(=O)OOC(=O)OCC1CCC(COC(=O)OOC(=O)CCCCCCCCCCC)CC1 (stereo not drawn) [LPCD, di(lauroylperoxy)-1,4-cyclohexane dimethanol bis-carbonate], the “Ten-Hour Half-Life Temperature” value [2] was 51.4 °C, the “Exotherm Time” value ([4]; Table VI) was 4.96 min and the “Gel Time” value ([4]; Table VI) was 4.05 min. For the same compound, the “% Conversion” value [5, 6] was 60.9%, the “% Conversion” value [5, 7] was 72.0% and the “% Conversion” value [5, 8] was 51.4%. The “% Conversion” value [5, 9] was 65.4%.
With O=C(OCCOc1ccccc1)OOC(=O)OCCOc1ccccc1 [di(phenoxyethyl) peroxydicarbonate] the “Ten-Hour Half-Life Temperature” value [2] was 42.2 °C, the “% Purity” value ([3]; 0 days elapsed) was 97.4% and the A.O. ([3]; 0 days elapsed) was 4.31. The “% Purity” value ([3]; 7 days elapsed) was 94.4%, the A.O. ([3]; 7 days elapsed) was 4.17 and the “% Purity” value ([3]; 14 days elapsed) was 93.3%. The A.O. ([3]; 14 days elapsed) was 4.12, the “% Purity” value ([3]; 28 days elapsed) was 91.1% and the A.O. ([3]; 28 days elapsed) was 4.03. The “% Purity” value ([3]; 59 days elapsed) was 84.7%, the A.O. ([3]; 59 days elapsed) was 3.74 and the “% Purity” value ([3]; 89 days elapsed) was 73.1%. The A.O. ([3]; 89 days elapsed) was 3.23, the “Exotherm Time” value ([4]; Table V) was 5.62 min and the “Gel Time” value ([4]; Table V) was 5.45 min.
In the case of CC(C)(COC(=O)OOC(=O)OCC(C)(C)c1ccccc1)c1ccccc1 [di(2-methyl-2-phenylpropyl) peroxy dicarbonate], the “stability at room/ambient temperature” value [1] is given as “ambient temperature stability”.
For CC(=O)OOC(=O)OCC1CCC(COC(=O)OOC(C)=O)CC1 (stereo not drawn) [APCD, di(acetylperoxy)-1,4-cyclohexane dimethanol bis-carbonate], the “Ten-Hour Half-Life Temperature” value [2] was 55.2 °C, the “% Purity” value ([3]; 0 days elapsed) was 99.6% and the A.O. ([3]; 0 days elapsed) was 9.15. The “% Purity” value ([3]; 7 days elapsed) was 99.5%, the A.O. ([3]; 7 days elapsed) was 9.14 and the “% Purity” value ([3]; 14 days elapsed) was 98.3%. The A.O. ([3]; 14 days elapsed) was 9.03, the “% Purity” value ([3]; 28 days elapsed) was 97.7% and the A.O. ([3]; 28 days elapsed) was 8.98. The “% Purity” value ([3]; 59 days elapsed) was 95.4%, the A.O. ([3]; 59 days elapsed) was 8.77 and the “% Purity” value ([3]; 89 days elapsed) was 93.4%. For the same compound, the A.O. ([3]; 89 days elapsed) was 8.58, the “Exotherm Time” value ([4]; Table V) was 4.05 min and the “Gel Time” value ([4]; Table V) was 3.38 min. For the same compound, the “Exotherm Time” value ([4]; Table VI) was 4.20 min, the “Gel Time” value ([4]; Table VI) was 3.58 min and the “% Conversion” value ([5]; 55 °C, 1.5 Hrs., 2.23 × 10^-4 moles/100g VCM (APCD 0.0775 % wt)) was 13.6%. The “% Conversion” value ([5]; 55 °C, 3.5 Hrs., 2.23 × 10^-4 moles/100g VCM (APCD 0.0775 % wt)) was 42.0%, the “% Conversion” value ([5]; 55 °C, 5.5 Hrs., 0.85 × 10^-4 moles/100g VCM (APCD 0.030 % wt)) was 35.7% and the “% Conversion” value ([5]; 55 °C, 5.5 Hrs., 1.15 × 10^-4 moles/100g VCM (APCD 0.040 % wt)) was 45.6%. The “% Conversion” value ([5]; 55 °C, 5.5 Hrs., 1.45 × 10^-4 moles/100g VCM (APCD 0.051 % wt)) was 55.7%, the “% Conversion” value ([5]; 55 °C, 5.5 Hrs., 1.72 × 10^-4 moles/100g VCM (APCD 0.060, BPCD 0.081 % wt)) was 60.5% and the “% Conversion” value [5, 6] was 71.5%. The “% Conversion” value ([5]; 55 °C, 5.5 Hrs., 2.23 × 10^-4 moles/100g VCM (APCD 0.0775 % wt)) was 80.3%, the “% Conversion” value [5, 7] was 83.0% and the “% Conversion” value ([5]; 60 °C, 1.5 Hrs., 1.36 × 10^-4 moles/100g VCM (APCD 0.0475 % wt)) was 15.1%. For the same compound, the “% Conversion” value ([5]; 60 °C, 3.5 Hrs., 1.36 × 10^-4 moles/100g VCM (APCD 0.0475 % wt)) was 46.9%, the “% Conversion” value ([5]; 60 °C, 5.0 Hrs., 0.85 × 10^-4 moles/100g VCM (APCD 0.030, BPCD 0.040 % wt)) was 48.5% and the “% Conversion” value [5, 8] was 65.9%. The “% Conversion” value ([5]; 60 °C, 5.0 Hrs., 1.36 × 10^-4 moles/100g VCM (APCD 0.0475 % wt)) was 83.1% and the “% Conversion” value [5, 9] was 86.6%.
